In US11629171B2, “Beta-hairpin peptidomimetics” (POLYPHOR AG, priority 2017, dated 2023):
≈ marks a conversion by molar mass, not a printed value. Where a SMILES comes first, the peptide text is derived from it. Bridges are numbered along the chain shown (N, C = ends). Roman numbers before positions name the chains, in order. [ ]: non-standard residue; d: D form. Hiv = CC(C)[C@H](O)C(=O)O; dDab = NCC[C@@H](N)C(=O)O; Dab = NCC[C@H](N)C(=O)O; Abu = CC[C@H](N)C(=O)O; Dap = NC[C@H](N)C(=O)O

Key:
[1] = test system: Enterobacter cloacae 848840; type: cell-based; conditions: 848840
Summary of the method: (§1)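 Visible-growth endpoint after 18-20 h at 35° C defines the MIC (μg/mL). Setup: CLSI broth microdilution, MH-II cation-adjusted broth with P-80 at 0.002% final, inoculum of approximately 10^6 CFU/mL, two-fold serial peptide dilutions.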

[2] = test system: Klebsiella pneumoniae 968733; type: cell-based; conditions: 968733
Summary of the method: as §1

[3] = test system: Klebsiella pneumoniae SSI #3010; type: cell-based; conditions: SSI #3010
Summary of the method: as §1

[4] = test system: Escherichia coli ATCC 25922; type: cell-based; conditions: ATCC 25922
Summary of the method: as §1

Escherichia coli 926415 = type: cell-based; conditions: 926415
Summary of the method: as §1

[5] = test system: Acinetobacter baumannii 872842; type: cell-based; conditions: 872842
Summary of the method: as §1

[6] = test system: Acinetobacter baumannii DSM 30008; type: cell-based; conditions: DSM 30008
Summary of the method: as §1

[7] = test system: Pseudomonas aeruginosa ATCC 27853; type: cell-based; conditions: ATCC 27853
Summary of the method: as §1

[8] = test system: human red blood cells (hRBC); assay: Hemolysis; type: cell-based; conditions: red cells of human, 1 h, 200
Summary of the method: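 Hemoglobin release from PBS-washed hRBC at 20% (v/v), incubated 1 h at 37° C with peptides at 200 μg/mL, is measured at 540 nm. Values are blank corrected and given as a fraction of Triton X-100 lysis × 100%.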

male ICR mice = assay: Tolerability in a mouse model (Maximum Tolerated Dose assay); type: in vivo; conditions: groups of 3
Summary of the method: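 Groups of 3 male ICR mice weighing 23±3 g received two subcutaneous doses, 12 h apart, of 30 or 40 mg/kg in saline adjusted to pH 6.5-7.6. Observation for 30 min after each dose covered autonomic effects and acute toxicity, including death.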

[9] = 2 × 40 mg/kg s.c. at a 12-hr interval

Row | SMILES | MIC [1] [µg/mL] | MIC [2] [µg/mL] | MIC [3] [µg/mL] | MIC [4] [µg/mL] | MIC (Escherichia coli 926415) [µg/mL] | MIC [5] [µg/mL] | MIC [6] [µg/mL] | MIC [7] [µg/mL] | Hemolysis at 200 μg/mL [8] [%] | Mortality and dose (male ICR mice; 2 × 30 mg/kg s.c. at a 12-hr interval) | Klebsiella pneumoniae SSI #3010 MIC [3] [µg/mL] | Escherichia coli ATCC 25922 MIC [4] [µg/mL] | Acinetobacter baumannii DSM 30008 MIC [6] [µg/mL] | Pseudomonas aeruginosa ATCC 27853 MIC [7] [µg/mL] | Mortality and dose (male ICR mice; [9])
1 | CC(=O)N[C@H](C(=O)N[C@H](C(=O)N[C@@H](Cc1ccc(O)cc1)C(=O)N[C@H]1CSSC[C@@H](C(=O)N[C@H](C(=O)N[C@@H](C)C(=O)N[C@H](C(N)=O)[C@@H](C)O)C(C)C)NC(=O)[C@H](Cc2c[nH]c3ccccc23)NC(=O)[C@H](CO)NC(=O)[C@@H](CCN)NC(=O)[C@H](CCC(=O)N[C@@H](CCN)C(=O)N[C@H](C(=O)N[C@@H](CN)C(=O)N[C@H]2CCNC(=O)[C@H]([C@@H](C)O)NC(=O)[C@H](CCN)NC(=O)[C@H](CCN)NC(=O)[C@H](CC(C)C)NC(=O)[C@@H](CC(C)C)NC(=O)[C@H](CCN)NC2=O)[C@@H](C)O)NC1=O)[C@@H](C)O)C(C)C [Ex. 219] (I: Ac-VTYCE[dDab]SWCVAT-NH2 / II: [Dab]T[Dap][Dab][Dab][dL]L[Dab][Dab]T; disulfide I:4-I:9; amide I:5-II:N; lactam II:4-II:C) | 0.125 (≈ 0.0521 µM) | 0.5 (≈ 0.209 µM) | 0.0625 (≈ 0.0261 µM) | 0.03125 (≈ 0.013 µM) | 0.25 (≈ 0.104 µM) | 0.125 (≈ 0.0521 µM) | 0.03125 (≈ 0.013 µM) | 0.125 (≈ 0.0521 µM) | <1 | 0/3 died at 2 × 30 mg/kg |  |  |  |  | 
2 | CC(=O)N[C@H](C(=O)N[C@H]1CSSC[C@@H](C(=O)N[C@@H](CO)C(N)=O)NC(=O)[C@H](C(C)C)NC(=O)[C@H](CO)NC(=O)[C@H](Cc2c[nH]c3ccccc23)NC(=O)[C@H](CO)NC(=O)CNC(=O)[C@H](CCC(=O)N[C@@H](CCN)C(=O)N[C@H](C(=O)N[C@@H](CN)C(=O)N[C@H]2CCNC(=O)[C@H]([C@@H](C)O)NC(=O)[C@H](CCN)NC(=O)[C@H](CCN)NC(=O)[C@H](CC(C)C)NC(=O)[C@@H](CC(C)C)NC(=O)[C@H](CCN)NC2=O)[C@@H](C)O)NC(=O)[C@H](CCN)NC(=O)[C@H](Cc2ccc(O)cc2)NC1=O)C(C)C [Ex. 337] (I: Ac-VCY[Dab]EGSWSVCS-NH2 / II: [Dab]T[Dap][Dab][Dab][dL]L[Dab][Dab]T; disulfide I:2-I:11; amide I:5-II:N; lactam II:4-II:C) | 0.25 (≈ 0.106 µM) | 2 (≈ 0.849 µM) |  |  | 1 (≈ 0.424 µM) | 0.25 (≈ 0.106 µM) |  |  | 2 |  | 0.125 | 0.0625 | 0.125 | 0.25 | 0/3 died at 2 × 40 mg/kg
3 | CC(=O)N[C@H](C(=O)N[C@H]1CCNC(=O)C[C@@H](C(=O)N[C@@H](CO)C(N)=O)NC(=O)[C@H](C(C)C)NC(=O)[C@H](CO)NC(=O)[C@H](Cc2c[nH]c3ccccc23)NC(=O)[C@H](CO)NC(=O)[C@@H](CCN)NC(=O)[C@H](CCC(=O)N[C@@H](CCN)C(=O)N[C@H](C(=O)N[C@@H](CN)C(=O)N[C@H]2CCNC(=O)[C@H]([C@@H](C)O)NC(=O)[C@H](CCN)NC(=O)[C@H](CCN)NC(=O)[C@H](CC(C)C)NC(=O)[C@@H](CC(C)C)NC(=O)[C@H](CCN)NC2=O)[C@@H](C)O)NC(=O)[C@H](CCN)NC(=O)[C@H](Cc2ccc(O)cc2)NC1=O)C(C)C [Ex. 341] (I: Ac-V[Dab]Y[Dab]E[dDab]SWSVDS-NH2 / II: [Dab]T[Dap][Dab][Dab][dL]L[Dab][Dab]T; lactam I:2-I:11, II:4-II:C; amide I:5-II:N) | 2 (≈ 0.836 µM) | 1 (≈ 0.418 µM) |  |  | 0.5 (≈ 0.209 µM) | 0.25 (≈ 0.105 µM) |  |  | <1 |  | 0.0625 | 0.0625 | 0.0625 | 0.125 | 0/3 died at 2 × 40 mg/kg
4 | CC(=O)N[C@H](C(=O)N[C@H]1CSSC[C@@H](C(=O)N[C@@H](CO)C(N)=O)NC(=O)[C@H](C(C)C)NC(=O)[C@H](CO)NC(=O)[C@H](Cc2c[nH]c3ccccc23)NC(=O)[C@H](CCC(=O)N[C@@H](CCN)C(=O)N[C@H](C(=O)N[C@@H](CN)C(=O)N[C@H]2CCNC(=O)[C@H]([C@@H](C)O)NC(=O)[C@H](CCN)NC(=O)[C@H](CCN)NC(=O)[C@H](CC(C)C)NC(=O)[C@@H](CC(C)C)NC(=O)[C@H](CCN)NC2=O)[C@@H](C)O)NC(=O)[C@@H](CCN)NC(=O)[C@H]([C@@H](C)O)NC(=O)[C@H](CCN)NC(=O)[C@H](Cc2ccc(O)cc2)NC1=O)C(C)C [Ex. 364] (I: Ac-VCY[Dab]T[dDab]EWSVCS-NH2 / II: [Dab]T[Dap][Dab][Dab][dL]L[Dab][Dab]T; disulfide I:2-I:11; amide I:7-II:N; lactam II:4-II:C) | 0.125 (≈ 0.0518 µM) | 0.125 (≈ 0.0518 µM) |  |  | 0.25 (≈ 0.104 µM) | 0.125 (≈ 0.0518 µM) |  |  | <1 |  | 0.0625 | 0.0625 | 0.0625 | 0.125 | 0/3 died at 2 × 40 mg/kg
5 | CC[C@@H]1NC(=O)[C@@H](CC(C)C)NC(=O)[C@H](CCN)NC(=O)[C@@H](NC(=O)[C@H](CN)NC(=O)[C@@H](NC(=O)[C@H](CCN)NC(=O)CC[C@@H]2NC(=O)[C@H](CCN)NC(=O)[C@H](Cc3ccc(O)cc3)NC(=O)[C@@H](NC(=O)[C@@H](O)C(C)C)CSSC[C@@H](C(=O)N[C@@H](CO)C(=O)N[C@H](CO)C(N)=O)NC(=O)[C@H]([C@@H](C)CC)NC(=O)[C@H](CO)NC(=O)[C@H](Cc3c[nH]c4ccccc34)NC(=O)CNC(=O)[C@@H](CCN)NC2=O)[C@@H](C)O)CCNC(=O)[C@H]([C@@H](C)O)NC(=O)[C@H](CCN)NC(=O)[C@H](CCN)NC1=O [Ex. 376] (I: H-[Hiv]CY[Dab]E[dDab]GWSICS[dS]-NH2 / II: [Dab]T[Dap][Dab][Dab][dL][Abu][Dab][Dab]T; disulfide I:2-I:11; amide I:5-II:N; lactam II:4-II:C) | 0.0625 (≈ 0.026 µM) | 0.5 (≈ 0.208 µM) |  |  | 0.25 (≈ 0.104 µM) | 0.25 (≈ 0.104 µM) |  |  | <1 |  | 0.0625 | 0.0625 | 0.0625 | 0.125 | 0/3 died at 2 × 40 mg/kg
6 | CC(C)C[C@@H]1NC(=O)[C@@H](CC(C)C)NC(=O)[C@H](CCN)NC(=O)[C@@H](NC(=O)[C@H](CN)NC(=O)[C@@H](NC(=O)[C@H](CCN)NC(=O)CC[C@@H]2NC(=O)[C@H](CO)NC(=O)[C@H](Cc3ccc(O)cc3)NC(=O)[C@@H](NC(=O)[C@@H](O)C(C)C)CSSC[C@@H](C(=O)N[C@@H](CO)C(N)=O)NC(=O)[C@H](C(C)C)NC(=O)[C@H](CO)NC(=O)[C@H](Cc3c[nH]c4ccccc34)NC(=O)[C@H](CCN)NC(=O)[C@@H](CCN)NC2=O)[C@@H](C)O)CCNC(=O)[C@H]([C@@H](C)O)NC(=O)[C@H](CCN)NC(=O)[C@H](CCN)NC1=O [Ex. 270] (I: H-[Hiv]CYSE[dDab][Dab]WSVCS-NH2 / II: [Dab]T[Dap][Dab][Dab][dL]L[Dab][Dab]T; disulfide I:2-I:11; amide I:5-II:N; lactam II:4-II:C) | 0.25 (≈ 0.106 µM) | 0.125 (≈ 0.053 µM) | 0.0625 (≈ 0.0265 µM) | 0.0625 (≈ 0.0265 µM) | 0.125 (≈ 0.053 µM) | 0.0625 (≈ 0.0265 µM) | 0.0625 (≈ 0.0265 µM) | 0.125 (≈ 0.053 µM) | <1 |  |  |  |  |  | 0/3 died at 2 × 40 mg/kg
7 | CC(=O)N[C@H](C(=O)N[C@H]1CSSC[C@@H](C(=O)N[C@@H](CO)C(N)=O)NC(=O)[C@H](C(C)C)NC(=O)[C@H](CO)NC(=O)[C@H](Cc2c[nH]c3ccccc23)NC(=O)[C@H](CCC(=O)N[C@@H](CCN)C(=O)N[C@H](C(=O)N[C@@H](CN)C(=O)N[C@H]2CCNC(=O)[C@H]([C@@H](C)O)NC(=O)[C@H](CCN)NC(=O)[C@H](CCN)NC(=O)[C@H](CC(C)C)NC(=O)[C@@H](CC(C)C)NC(=O)[C@H](CCN)NC2=O)[C@@H](C)O)NC(=O)[C@@H](CCN)NC(=O)[C@H](C)NC(=O)[C@H](CCN)NC(=O)[C@H](Cc2ccc(O)cc2)NC1=O)C(C)C [Ex. 361] (I: Ac-VCY[Dab]A[dDab]EWSVCS-NH2 / II: [Dab]T[Dap][Dab][Dab][dL]L[Dab][Dab]T; disulfide I:2-I:11; amide I:7-II:N; lactam II:4-II:C) | 0.0625 (≈ 0.0262 µM) | 0.125 (≈ 0.0525 µM) |  |  | 0.125 (≈ 0.0525 µM) | 0.0625 (≈ 0.0262 µM) |  |  | <1 |  | 0.0625 | 0.0625 | 0.0625 | 0.125 | 0/3 died at 2 × 40 mg/kg
